Laboratory results reported in US20240166635A1, “AMINOHETEROARYL KINASE INHIBITORS” (Anrui Biomedical Technology (Guangzhou) Co.,Ltd., priority 2020, published 2024).

Legend:
Format in all cases: biochemical
[1] = target: CDK6/CyclinD1 (Homo sapiens (Human), UniProt Q00534); test: CDK6/CyclinD1 kinase inhibitory activity (Caliper mobility shift); conditions: read-out: CDK6/Cyclin D1 IC50
[2] = target: CDK2/CyclinE1 (Homo sapiens (Human), UniProt P24941); test: CDK2/CyclinE1 kinase inhibitory activity (Caliper mobility shift); conditions: read-out: CDK2/Cyclin El IC50
[3] = target: CDK7/CyclinH/MAT1 (Homo sapiens (Human), UniProt P50613); test: CDK7/CyclinH/MAT1 kinase inhibitory activity (Caliper mobility shift)
[4] = target: CDK4/Cyclin D1 (Homo sapiens (Human), UniProt P11802); test: CDK4/CyclinD1 kinase inhibitory activity (Caliper mobility shift)
[5] = target: CDK9/CyclinT1 (Homo sapiens (Human), UniProt P50750); test: CDK9/CyclinT1 kinase inhibitory activity (Caliper mobility shift); conditions: read-out: CDK9/Cyclin T1 IC50
[6] = target: CDK1/CyclinB (Homo sapiens (Human), UniProt P06493); test: CDK1/CyclinB kinase inhibitory activity (Caliper mobility shift); conditions: read-out: CDK1/Cyclin B1 IC50
CDK1/CyclinB, sequence (P06493 whole entry): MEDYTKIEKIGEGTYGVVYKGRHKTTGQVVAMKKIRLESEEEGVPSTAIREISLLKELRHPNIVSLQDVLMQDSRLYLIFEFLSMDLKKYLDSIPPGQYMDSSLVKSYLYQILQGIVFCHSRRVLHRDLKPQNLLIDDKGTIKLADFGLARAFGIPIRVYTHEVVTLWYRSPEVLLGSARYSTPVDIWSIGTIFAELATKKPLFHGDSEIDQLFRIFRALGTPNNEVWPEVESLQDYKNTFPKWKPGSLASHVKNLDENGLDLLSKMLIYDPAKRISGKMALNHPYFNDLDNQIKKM
CDK1/CyclinB, sequence (P14635 whole entry partner): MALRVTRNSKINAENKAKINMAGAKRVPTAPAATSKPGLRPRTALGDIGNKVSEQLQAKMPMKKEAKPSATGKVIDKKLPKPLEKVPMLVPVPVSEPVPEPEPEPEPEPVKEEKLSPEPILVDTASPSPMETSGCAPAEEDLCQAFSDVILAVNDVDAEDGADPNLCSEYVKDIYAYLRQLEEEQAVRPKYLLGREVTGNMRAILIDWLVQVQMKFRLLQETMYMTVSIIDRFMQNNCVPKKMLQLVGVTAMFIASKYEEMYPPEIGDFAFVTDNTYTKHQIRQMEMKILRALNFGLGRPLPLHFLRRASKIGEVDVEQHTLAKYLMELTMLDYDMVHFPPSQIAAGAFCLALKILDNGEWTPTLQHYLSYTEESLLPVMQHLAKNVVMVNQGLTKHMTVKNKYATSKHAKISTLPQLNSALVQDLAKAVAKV

CDK7/CyclinH/MAT1, sequence (P50613 whole entry): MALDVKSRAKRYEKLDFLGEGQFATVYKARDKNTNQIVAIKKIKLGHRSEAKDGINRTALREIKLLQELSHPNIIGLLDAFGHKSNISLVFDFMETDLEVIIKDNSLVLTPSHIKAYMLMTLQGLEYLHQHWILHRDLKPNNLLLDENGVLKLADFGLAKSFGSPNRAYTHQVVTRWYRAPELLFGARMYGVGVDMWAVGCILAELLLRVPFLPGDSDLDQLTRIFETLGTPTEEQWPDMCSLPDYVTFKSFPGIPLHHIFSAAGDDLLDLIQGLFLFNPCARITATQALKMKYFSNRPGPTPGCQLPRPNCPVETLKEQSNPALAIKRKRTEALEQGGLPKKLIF
CDK7/CyclinH/MAT1, sequence (P51946 whole entry partner): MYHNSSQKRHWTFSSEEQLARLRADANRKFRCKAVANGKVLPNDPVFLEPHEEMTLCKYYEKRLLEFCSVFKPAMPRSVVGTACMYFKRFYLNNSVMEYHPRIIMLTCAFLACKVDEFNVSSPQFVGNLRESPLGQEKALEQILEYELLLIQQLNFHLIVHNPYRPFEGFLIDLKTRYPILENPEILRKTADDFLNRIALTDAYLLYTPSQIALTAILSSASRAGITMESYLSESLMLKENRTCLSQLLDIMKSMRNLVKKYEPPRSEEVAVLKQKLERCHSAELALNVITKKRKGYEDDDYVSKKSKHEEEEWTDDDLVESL
CDK7/CyclinH/MAT1, sequence (P51948 whole entry partner): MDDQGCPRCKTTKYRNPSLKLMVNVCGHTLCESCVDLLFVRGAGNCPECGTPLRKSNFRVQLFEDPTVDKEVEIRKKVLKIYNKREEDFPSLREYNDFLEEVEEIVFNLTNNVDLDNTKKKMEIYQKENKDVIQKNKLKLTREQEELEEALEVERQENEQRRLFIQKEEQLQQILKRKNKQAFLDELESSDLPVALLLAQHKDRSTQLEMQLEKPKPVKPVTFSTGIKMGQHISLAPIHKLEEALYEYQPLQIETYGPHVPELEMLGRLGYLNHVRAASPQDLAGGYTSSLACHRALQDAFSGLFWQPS
CDK4/Cyclin D1, sequence (P11802 whole entry): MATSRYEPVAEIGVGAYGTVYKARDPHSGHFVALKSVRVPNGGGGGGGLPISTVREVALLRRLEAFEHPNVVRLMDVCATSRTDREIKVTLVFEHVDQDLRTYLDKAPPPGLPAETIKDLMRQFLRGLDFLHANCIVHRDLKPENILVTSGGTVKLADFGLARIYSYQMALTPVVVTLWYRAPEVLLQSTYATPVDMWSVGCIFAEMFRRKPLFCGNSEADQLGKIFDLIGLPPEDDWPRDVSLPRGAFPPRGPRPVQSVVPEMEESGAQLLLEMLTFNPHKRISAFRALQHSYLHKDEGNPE
CDK4/Cyclin D1, sequence (P24385 whole entry partner): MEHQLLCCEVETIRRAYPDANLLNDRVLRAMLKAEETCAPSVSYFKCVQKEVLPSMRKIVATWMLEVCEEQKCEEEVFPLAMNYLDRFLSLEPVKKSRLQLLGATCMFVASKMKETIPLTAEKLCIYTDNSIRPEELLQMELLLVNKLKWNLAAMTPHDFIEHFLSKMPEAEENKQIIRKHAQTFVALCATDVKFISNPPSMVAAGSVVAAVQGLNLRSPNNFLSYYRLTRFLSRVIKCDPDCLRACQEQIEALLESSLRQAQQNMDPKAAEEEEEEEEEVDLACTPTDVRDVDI
CDK6/CyclinD1, sequence (Q00534 whole entry): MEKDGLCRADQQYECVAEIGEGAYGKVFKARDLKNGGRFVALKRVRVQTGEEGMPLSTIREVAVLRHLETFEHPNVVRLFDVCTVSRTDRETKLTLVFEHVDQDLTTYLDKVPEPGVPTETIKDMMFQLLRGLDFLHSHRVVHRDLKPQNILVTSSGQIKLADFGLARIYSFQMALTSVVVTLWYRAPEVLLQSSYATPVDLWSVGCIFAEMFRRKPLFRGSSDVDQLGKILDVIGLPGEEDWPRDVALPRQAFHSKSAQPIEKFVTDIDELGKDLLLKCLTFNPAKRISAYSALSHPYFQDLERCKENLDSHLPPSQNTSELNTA
CDK6/CyclinD1, sequence (P24385 whole entry partner): as the sequence (P24385 whole entry partner) above
CDK9/CyclinT1, sequence (P50750 whole entry): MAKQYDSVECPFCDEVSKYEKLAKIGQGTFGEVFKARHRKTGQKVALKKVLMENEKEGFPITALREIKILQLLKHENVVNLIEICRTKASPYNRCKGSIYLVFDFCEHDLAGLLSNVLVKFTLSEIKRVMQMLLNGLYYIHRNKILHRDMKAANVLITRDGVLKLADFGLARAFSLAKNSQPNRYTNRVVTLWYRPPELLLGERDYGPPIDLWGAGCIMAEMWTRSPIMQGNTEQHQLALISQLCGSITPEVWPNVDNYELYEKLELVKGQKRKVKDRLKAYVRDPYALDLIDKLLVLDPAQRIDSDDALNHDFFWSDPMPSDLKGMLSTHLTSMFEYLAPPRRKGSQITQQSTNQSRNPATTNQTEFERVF
CDK9/CyclinT1, sequence (O60563 whole entry partner): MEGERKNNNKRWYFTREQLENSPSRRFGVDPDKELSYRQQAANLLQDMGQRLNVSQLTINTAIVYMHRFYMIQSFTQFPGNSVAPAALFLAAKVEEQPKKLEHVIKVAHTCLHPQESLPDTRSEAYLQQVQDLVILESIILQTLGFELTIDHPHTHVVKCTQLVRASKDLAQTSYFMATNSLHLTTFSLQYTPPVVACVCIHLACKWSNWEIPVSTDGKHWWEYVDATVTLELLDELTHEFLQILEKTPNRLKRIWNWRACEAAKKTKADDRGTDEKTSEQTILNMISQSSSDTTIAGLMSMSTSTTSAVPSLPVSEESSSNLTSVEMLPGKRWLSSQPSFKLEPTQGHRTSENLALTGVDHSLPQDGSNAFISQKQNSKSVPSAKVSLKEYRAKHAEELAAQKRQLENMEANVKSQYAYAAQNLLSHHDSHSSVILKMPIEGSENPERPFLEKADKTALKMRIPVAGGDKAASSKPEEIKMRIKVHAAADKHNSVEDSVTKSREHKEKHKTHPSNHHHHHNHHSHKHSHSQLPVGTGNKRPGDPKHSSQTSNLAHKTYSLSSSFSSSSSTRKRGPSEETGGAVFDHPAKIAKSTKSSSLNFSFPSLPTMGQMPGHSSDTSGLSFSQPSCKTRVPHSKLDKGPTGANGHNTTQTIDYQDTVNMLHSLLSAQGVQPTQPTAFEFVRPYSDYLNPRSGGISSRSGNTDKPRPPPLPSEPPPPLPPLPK

| IC50 [1] [nM] | IC50 [2] [nM] | IC50 [3] [nM] | IC50 [4] [nM] | IC50 [5] [nM] | IC50 [6] [nM] | Structure (SMILES) |
| --- | --- | --- | --- | --- | --- | --- |
| 10 to 100 | < 10 | 100 to 1000 | 100 to 1000 | 10 to 100 | 10 to 100 | CCc1cnc(Nc2ccc(S(N)(=O)=O)cc2)nc1O[C@@H]1CCC[C@@H]1O (single isomer, unassigned) [Example 133a, cis-4-((5-ethyl-4-((2-hydroxycyclopentyl)oxy)pyrimidin-2-yl)amino)benzenesulfonamide] |
| 100 to 1000 | < 10 | 100 to 1000 | ≥ 1000 | ≥ 1000 | 100 to 1000 | [2H]C([2H])([2H])NS(=O)(=O)c1ccc(Nc2ncc(CC)c(OC3CCOCC3O)n2)cc1 (single isomer, unassigned) [Example 151a] |
| 100 to 1000 | < 10 | ≥ 1000 | 10 to 100 | 10 to 100 | 10 to 100 | Cc1cccc(-c2nc(Nc3ccc(S(N)(=O)=O)cc3)ncc2C#N)c1 [Example 94] |
| 10 to 100 | < 10 | 100 to 1000 | < 10 | 100 to 1000 | < 10 | CC1(COc2nc(NC3CCN(S(N)(=O)=O)CC3)ncc2C#N)CCCC1 [Example 56] |
| 10 to 100 | < 10 | 100 to 1000 | < 10 | 100 to 1000 | 10 to 100 | CCS(=O)(=O)N1CCC(Nc2ncc(C#N)c(OC3CCCC3(C)O)n2)CC1 (single isomer, unassigned) [Example 36b] |
| 100 to 1000 | < 10 | ≥ 1000 | ≥ 1000 | 100 to 1000 | 100 to 1000 | Cc1cnc(Nc2ccc(S(=O)(=O)NC3CC3)cc2)nc1OC1CCCC1O (single isomer, unassigned) [Example 146a] |
| 100 to 1000 | < 10 | 100 to 1000 | 100 to 1000 | 100 to 1000 | 10 to 100 | [2H]C([2H])([2H])NS(=O)(=O)c1ccc(Nc2ncc(C(F)(F)F)c(OC3CCCC3O)n2)cc1 (single isomer, unassigned) [Example 109a] |
| 100 to 1000 | < 10 | ≥ 1000 | 10 to 100 | 100 to 1000 | 10 to 100 | N#Cc1cnc(Nc2ccc(S(=O)(=O)NC3CC(F)C3)cc2)nc1OC1CCCCC1O (single isomer, unassigned) [Example 31a] |
| ≥ 1000 | 10 to 100 | ≥ 1000 | 10 to 100 | 100 to 1000 | 100 to 1000 | N#Cc1cnc(Nc2ccc(S(N)(=O)=O)cc2)nc1-c1cccc(C2CC2)c1 [Example 96] |
| 100 to 1000 | < 10 | ≥ 1000 | 100 to 1000 | 100 to 1000 | 100 to 1000 | N#Cc1cnc(Nc2ccc(S(N)(=O)=O)cc2)nc1OC1CCCC1O (single isomer, unassigned) [Example 20a] |
| 10 to 100 | < 10 | 100 to 1000 | 10 to 100 | 100 to 1000 | 10 to 100 | CNS(=O)(=O)N1CCC(Nc2ncc(C(F)(F)F)c(OC3CCCCCC3O)n2)CC1 (single isomer, unassigned) [Example 123b] |
| 100 to 1000 | < 10 | ≥ 1000 | 10 to 100 | 100 to 1000 | 10 to 100 | [2H]C([2H])([2H])NS(=O)(=O)c1ccc(Nc2ncc(C#N)c(OC3CCCOCC3)n2)cc1 (single isomer, unassigned) [Example 33a] |
| 100 to 1000 | < 10 | 100 to 1000 | 100 to 1000 | 100 to 1000 | 10 to 100 | [2H]C([2H])([2H])NS(=O)(=O)c1ccc(Nc2ncc(C(F)(F)F)c(O[C@H]3CCOC[C@H]3O)n2)cc1 (single isomer, unassigned) [Example 100a, cis-4-((4-((3-hydroxytetrahydro-2H-pyran-4-yl)oxy)-5-(trifluoromethyl)pyrimidin-2-yl)amino)-N-(methyl-d3)benzenesulfonamide] |
| 100 to 1000 | < 10 | 100 to 1000 | 100 to 1000 | 100 to 1000 | 10 to 100 | CNS(=O)(=O)c1ccc(Nc2ncc(C(F)(F)F)c(OC3CCCC3O)n2)cc1 (single isomer, unassigned) [Example 105a] |
| 100 to 1000 | < 10 | ≥ 1000 | ≥ 1000 | 100 to 1000 | 100 to 1000 | [2H]C([2H])([2H])NS(=O)(=O)c1ccc(Nc2ncc(C)c(OC3CCCC3O)n2)cc1 (single isomer, unassigned) [Example 148a] |

The remaining lines, values behind:

| Structure (SMILES) | IC50 [1] [nM] | IC50 [2] [nM] | IC50 [3] [nM] | IC50 [4] [nM] | IC50 [5] [nM] | IC50 [6] [nM] |
| --- | --- | --- | --- | --- | --- | --- |
| CN1CCC(NS(=O)(=O)c2ccc(Nc3ncc(Cl)c(OC4CCCC4O)n3)cc2)CC1 (single isomer, unassigned) [Example 139a] | 10 to 100 | < 10 | 100 to 1000 | 100 to 1000 | 100 to 1000 | 10 to 100 |
| [2H]C([2H])([2H])NS(=O)(=O)c1ccc(Nc2ncc(Br)c(OC3CCCC3O)n2)cc1 (single isomer, unassigned) [Example 143a] | 10 to 100 | < 10 | 100 to 1000 | 100 to 1000 | 100 to 1000 | 10 to 100 |
| CC1(O)CCCC1Oc1nc(Nc2ccc(S(N)(=O)=O)cc2)ncc1C#N (single isomer, unassigned) [Example 23a] | 10 to 100 | < 10 | 100 to 1000 | 10 to 100 | 10 to 100 | < 10 |
| CC1(O)COCCC1Oc1nc(NC2CCN(S(C)(=O)=O)CC2)ncc1C(F)(F)F (single isomer, unassigned) [Example 124a] | 10 to 100 | < 10 | < 10 | 10 to 100 | 10 to 100 | 10 to 100 |
| CC1(O)CCCC1Oc1nc(NC2CCN(S(=O)(=O)CF)CC2)ncc1C#N (single isomer, unassigned) [Example 37a] | 10 to 100 | < 10 | 10 to 100 | < 10 | 100 to 1000 | 10 to 100 |
| CC(C)NS(=O)(=O)c1ccc(Nc2ncc(C3CC3)c(O[C@@H]3CCC[C@@H]3O)n2)cc1 (single isomer, unassigned) [Example 134a, cis-4-((5-cyclopropyl-4-((2-hydroxycyclopentyl)oxy)pyrimidin-2-yl)amino)-N-isopropylbenzenesulfonamide] | 100 to 1000 | < 10 | 100 to 1000 | 100 to 1000 | 100 to 1000 | 10 to 100 |
| N#Cc1cnc(Nc2ccc(S(N)(=O)=O)cc2)nc1OC1CCCC1 [Example 10] | 10 to 100 | < 10 | 100 to 1000 | 10 to 100 | 10 to 100 | 10 to 100 |
| [2H]C([2H])([2H])NS(=O)(=O)c1ccc(Nc2ncc(CC)c(OC3COCC3(C)O)n2)cc1 (single isomer, unassigned) [Example 150a] | 100 to 1000 | < 10 | 100 to 1000 | 100 to 1000 | 100 to 1000 | 10 to 100 |
| Cc1cnc(Nc2ccc(S(N)(=O)=O)cc2)nc1O[C@@H]1CCC[C@@H]1O (single isomer, unassigned) [Example 132a, cis-4-((4-((2-hydroxycyclopentyl)oxy)-5-methylpyrimidin-2-yl)amino)benzenesulfonamide] | 100 to 1000 | < 10 | 100 to 1000 | 100 to 1000 | 100 to 1000 | 100 to 1000 |
| N#Cc1cnc(Nc2ccc(S(=O)(=O)NC3CCC3)cc2)nc1OC1CCC[C@H]1O (mixture of isomers) [Example 25] | 10 to 100 | < 10 | ≥ 1000 | 100 to 1000 | 100 to 1000 | 10 to 100 |
| CC1(O)CCCC1Oc1nc(NC2CCN(S(=O)(=O)CC(F)(F)F)CC2)ncc1C#N (single isomer, unassigned) [Example 43a] | 10 to 100 | < 10 | 100 to 1000 | < 10 | 100 to 1000 | 10 to 100 |
| CC1(COc2nc(NC3CCN(S(C)(=O)=O)CC3)ncc2C#N)CCCC1 [Example 54] | < 10 | < 10 | 100 to 1000 | < 10 | 100 to 1000 | 10 to 100 |
| NS(=O)(=O)c1ccc(Nc2ncc(C(F)(F)F)c(OC3CCOCC3O)n2)cc1 (single isomer, unassigned) [Example 114a] | 100 to 1000 | < 10 | 100 to 1000 | 100 to 1000 | 10 to 100 | 10 to 100 |
| CC1(O)CC(F)(F)CC1Oc1nc(NC2CCN(S(=O)(=O)CC3CC3)CC2)ncc1C#N (single isomer, unassigned) [Example 44b] | < 10 | < 10 | 10 to 100 | 10 to 100 | 100 to 1000 | 10 to 100 |
| Cn1cc(S(=O)(=O)N2CCC(Nc3ncc(C#N)c(OCC4(C)CCC4)n3)CC2)cn1 [Example 60] | 10 to 100 | < 10 | 100 to 1000 | < 10 | 100 to 1000 | < 10 |
| CC(C)NS(=O)(=O)c1ccc(Nc2ncc(C#N)c(OC3CCC[C@H]3O)n2)cc1 (mixture of isomers) [Example 27] | 100 to 1000 | < 10 | ≥ 1000 | 100 to 1000 | 100 to 1000 | 10 to 100 |
| CC1(O)CCCC1Oc1nc(NC2CCN(S(=O)(=O)CC3CC3)CC2)ncc1C#N (single isomer, unassigned) [Example 38a] | < 10 | < 10 | 10 to 100 | < 10 | 100 to 1000 | 10 to 100 |
